Like-named read-outs stand apart in the source and are kept apart here.
Columns and labels:
δ-opioid receptor [1] = target: T1, δ-opioid receptor (Homo sapiens, UniProt P41143); experiment: Scintillation screening assay for δ-opioid receptor binding ([3H]bremazocine); settings: cloned human receptor in CHO cell membranes, [3H]bremazocine 2.4 nM; for inhibition at 25 µM: read-out: δ-Opioid Receptor Binding (% Inhibition), % I @ 25 μM
T1 construct: purchased Receptor Biology, Baltimore, Md; host or cells: CHO cells (membranes)
Excerpt: Scintillation Screening Assay for δ-Opioid Receptor Binding
This is a receptor based screen to detect the competitive binding of test compounds at the δ-opioid receptor against the radioligand, [^3H]bremazocine (S.A.=25.5 Cl/mmol, Dupont/NEN, Cambridge, Mass.). Unknown compounds that bind to the same receptor as the radioligand will compete for the receptor and reduce the amount of radioligand which binds to the receptor. This is detected as a decreased scintillation signal from that particular incubation. The greater affinity an unknown has for the receptor, the larger the observed decrease in […] to the receptor; thus the assay is in the format of an inhibition study.
The receptor is a cloned human cDNA expressed in mammalian CHO cells. Membranes prepared from these cells are purchased from Receptor Biology, Baltimore, Md. The reaction buffer is composed as follows: HEPES (50 mM final), MgCl.6H2O (5 mM final), o-phenanthroline (20 mg/l), aprotinin (10 mg/l), Pefabloc SC (250 mg/l), leupeptin (0.5 mg/l), pepstatin A (0.7 mg/l), trypsin inhibitor (25 mg/l), chymostatin (10 mg/l), pH=7.2. Naloxone, 10 uM, is used to define non-specific binding. The assay employs filtration to capture receptor and bound ligand.
The receptor (membrane) preparation (28 ug protein) is allowed to incubate with the opioid receptor radioligand ([^3H]bremazocine, 2.4 nM) in 96-well plates until equilibrium is reached (>2 hr). Following incubation with the radioligand at 23° C., the well contents are filtered onto 96-well Whatman GF/C filter plates using a Packard cell harvester. Radioligand bound to the receptor also remains on the filter. The filters are rinsed three times with 0.5 mL of physiological saline (0.9% NaCl) to remove any unbound radioligand from the filter. Filters are dried and scintillation fluid is then added to the filters which emits light in proportion to the amount of radioactivity on the filter which is determined using an Packard Topcount scintillation counter. Data are reported as percent inhibition of control binding.

δ-opioid receptor [2] = target: δ-opioid receptor (Rattus norvegicus, UniProt P33533); experiment: Rat brain δ-opioid receptor binding assay ([3H]DPDPE)
μ-opioid receptor = μ-opioid receptor (Rattus norvegicus, UniProt P33535); experiment: Rat brain μ-opioid receptor binding assay ([3H]DAMGO)
[3] = tested on: acetylcholine bromide-induced abdominal constriction response; experiment: Mouse acetylcholine bromide-induced abdominal constriction assay (MAIT); type: in vivo; settings: po, 0.5 h, 150 μmole/Kg p.o., acetylcholine bromide 5.5 mg/kg i.p. 30 min later
Experimental: The mouse acetylcholine-induced abdominal constriction assay, as described by Collier et al. in […]., 32: 295-310, 1968 with minor modifications, was used to assess analgesic potency of the compounds of formula (I). The test drugs or appropriate vehicles were administered orally (p.o.) and 30 min later the animal received an intraperitoneal (i.p.) injection of 5.5 mg/kg acetylcholine bromide (Matheson, Coleman and Bell, East Rutherford, N.J.). The mice were then placed in groups of three into glass bell jars and observed for a ten min observation period for the occurrence of an abdominal constriction response (defined as a wave of constriction and elongation passing caudally along the abdominal wall, accompanied by a twisting of the trunk and followed by extension of the hind limbs). For compounds of the present invention, the percent inhibition of this response to a nociceptive stimulus (equated to % analgesia) was calculated as follows: [formula]

[4] = rat forebrain preparation, [3H]DPDPE, 25° C., read-out: δ-Opioid Receptor Binding (Ki nM)
[5] = rat forebrain preparation, [3H]DAMGO, 25° C., read-out: μ-Opioid Receptor Binding (Ki nM)

Chain of μ-opioid receptor (P33535 whole entry): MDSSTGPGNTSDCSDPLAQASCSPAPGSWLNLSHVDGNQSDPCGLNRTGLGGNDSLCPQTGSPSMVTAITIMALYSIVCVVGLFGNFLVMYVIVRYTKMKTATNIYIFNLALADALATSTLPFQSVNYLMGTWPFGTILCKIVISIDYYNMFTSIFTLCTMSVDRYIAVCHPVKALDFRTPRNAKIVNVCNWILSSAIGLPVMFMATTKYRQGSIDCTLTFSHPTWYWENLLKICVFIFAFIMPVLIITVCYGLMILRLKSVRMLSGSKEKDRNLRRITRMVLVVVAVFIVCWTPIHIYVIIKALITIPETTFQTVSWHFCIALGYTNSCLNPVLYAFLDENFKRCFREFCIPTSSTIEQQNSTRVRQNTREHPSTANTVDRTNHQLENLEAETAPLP
Chain of δ-opioid receptor (Rattus norvegicus, UniProt P33533) (P33533 whole entry): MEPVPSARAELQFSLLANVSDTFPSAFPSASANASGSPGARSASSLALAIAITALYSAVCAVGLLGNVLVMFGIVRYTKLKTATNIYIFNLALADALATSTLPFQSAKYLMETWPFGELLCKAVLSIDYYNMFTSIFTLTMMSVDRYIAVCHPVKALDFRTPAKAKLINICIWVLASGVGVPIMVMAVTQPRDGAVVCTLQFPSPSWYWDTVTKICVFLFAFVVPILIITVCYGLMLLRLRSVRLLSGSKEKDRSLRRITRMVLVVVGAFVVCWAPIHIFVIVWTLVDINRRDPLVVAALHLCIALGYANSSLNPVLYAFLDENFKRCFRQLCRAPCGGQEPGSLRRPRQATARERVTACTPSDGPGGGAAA
T1 sequence (P41143 whole entry): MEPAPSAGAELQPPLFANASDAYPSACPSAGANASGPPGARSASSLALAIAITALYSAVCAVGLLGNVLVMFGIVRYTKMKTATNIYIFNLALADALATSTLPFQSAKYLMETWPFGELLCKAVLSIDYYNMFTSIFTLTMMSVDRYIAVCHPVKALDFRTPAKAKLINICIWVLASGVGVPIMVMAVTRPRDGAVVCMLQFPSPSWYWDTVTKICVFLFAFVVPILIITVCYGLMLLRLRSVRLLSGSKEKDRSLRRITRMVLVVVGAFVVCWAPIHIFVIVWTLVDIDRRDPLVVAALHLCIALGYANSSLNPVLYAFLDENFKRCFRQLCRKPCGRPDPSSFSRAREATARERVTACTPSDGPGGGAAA

Row | Molecule | δ-Opioid Receptor Binding (% Inhibition), % I @ 25 μM (δ-opioid receptor [1]) [%] | Ki (δ-opioid receptor [2]; [4]) [nM] | Ki (μ-opioid receptor; [5]) [nM] | inhibition at 25 µM (δ-opioid receptor [1]) [%] | Ki (δ-opioid receptor [2]) [nM] | Ki (μ-opioid receptor) [nM] | inhibition in vivo at 150 µmol/kg [3] [%]
1 | 4-[[(2-chlorophenyl)imino](4-ethyl-1-piperazinyl)methyl]-benzoic acid methyl ester [Compound 31] | 100 | 222 | > 10000 |  |  |  | 
2 | CCN1CCN(C(=Nc2ccccc2)c2ccc(C(=O)N(CC)CC)cc2)CC1 [Compound 1, N,N-diethyl-4-[(4-ethyl-1-piperazinyl)(phenylimino)methyl]-benzamide] |  |  |  | 106 | 16 | > 10000 | 40
3 | CCN1CCN(C(=Nc2cccc(Cl)c2)c2ccc(C(=O)N(CC)CC)cc2)CC1 [Compound 3] |  |  |  | 103 | 62.6 | > 10000 | 40
4 | CCN1CCN(C(=Nc2cccc(Br)c2)c2ccc(C(=O)N(CC)CC)cc2)CC1 [Compound 4, 4-[[(3-bromophenyl)imino](4-ethyl-1-piperazinyl)methyl]-N,N-diethyl-benzamide] |  |  |  | 100 | 57.6 | > 10000 | 7.7
5 | CCCN(CCC)C(=O)c1ccc(C(=Nc2cccc(Br)c2)N2CCN(CC)CC2)cc1 [Compound 5, 4-[[(3-bromophenyl)imino](4-ethyl-1-piperazinyl)methyl]-N,N-dipropyl-benzamide] |  |  |  | 100 | 39.2 | 5510 | 14.3
6 | CCN1CCN(C(=Nc2ccccc2Cl)c2ccc(C(=O)N(CC)CC)cc2)CC1 [Compound 6, 4-[[(2-chlorophenyl)imino](4-ethyl-1-piperazinyl)methyl]-N,N-diethyl-benzamide] |  |  |  | 103 | 91.1 | > 10000 | 20
7 | CCCN(CCC)C(=O)c1ccc(C(=Nc2ccccc2Cl)N2CCN(CC)CC2)cc1 [Compound 7, 4-[[(2-chlorophenyl)imino](4-ethyl-1-piperazinyl)methyl]-N,N-dipropyl-benzamide] |  | 292 | 3930 | 97 |  |  | 
8 | CCCN(CCC)C(=O)c1ccc(C(=Nc2cccc(F)c2)N2CCN(CC)CC2)cc1 [Compound 8, 4-[(4-ethyl-1-piperazinyl)[(3-fluorophenyl)imino]methyl]-N,N-dipropyl-benzamide] |  |  |  | 97 | 60.7 | 6890 | 7.1
9 | CCN1CCN(C(=Nc2cccc(F)c2)c2ccc(C(=O)N(CC)CC)cc2)CC1 [Compound 9, N,N-diethyl-4-[(4-ethyl-1-piperazinyl)[(3-fluorophenyl)imino]methyl]-benzamide] |  |  |  | 97 | 58.5 | > 10000 | 
10 | CCCN(CCC)C(=O)c1ccc(C(=Nc2ccccc2F)N2CCN(CC)CC2)cc1 [Compound 11, 4-[(4-ethyl-1-piperazinyl)[(2-fluorophenyl)imino]methyl]-N,N-dipropyl-benzamide] |  | 256 | > 10000 | 98 |  |  | 
11 | CCCN(CCC)C(=O)c1ccc(C(=Nc2cc(Cl)cc(Cl)c2)N2CCN(CC)CC2)cc1 [Compound 12, 4-[[(3,5-dichlorophenyl)imino](4-ethyl-1-piperazinyl)methyl]-N,N-dipropyl-benzamide] |  | 674 | > 10000 | 98 |  |  | 
12 | CCN1CCN(C(=Nc2cc(Cl)cc(Cl)c2)c2ccc(C(=O)N(CC)CC)cc2)CC1 [Compound 13, 4-[[(3,5-dichlorophenyl)imino](4-ethyl-1-piperazinyl)methyl]-N,N-diethyl-benzamide] |  | 277 | > 10000 | 100 |  |  | 
13 | CCCN1CCN(C(=Nc2cccc(Cl)c2)c2ccc(C(=O)N(CC)CC)cc2)CC1 [Compound 14, 4-[[(3-chlorophenyl)imino](4-propyl-1-piperazinyl)methyl]-N,N-diethyl-benzamide] |  |  |  | 101 | 177 | 9530 | 
14 | C=CCN1C[C@H](C)N(/C(=N/c2ccccc2)c2ccc(C(=O)N(CC)CC)cc2)C[C@H]1C [Compound 16, 4-[(E)-[(2S,5R)-2,5-dimethyl-4-(2-propenyl)piperazinyl](phenylimino)methyl]-N,N-diethyl-benzamide] |  | 170 | 4330 |  |  |  | 50
15 | C=CCN1CCN(C(=Nc2ccccc2Cl)c2ccc(C(=O)N(CC)CC)cc2)CC1 [Compound 19, 4-[[(2-chlorophenyl)imino][4-(2-propenyl)-1-piperazinyl]methyl]-N,N-diethyl-benzamide] |  |  |  |  | 20.5 | 7600 | 40
16 | CCN(CC)C(=O)c1ccc(C(=Nc2ccccc2Cl)N2CCN(Cc3ccccc3)CC2)cc1 [Compound 20, 4-[[(2-chlorophenyl)imino][4-(phenylmethyl)-1-piperazinyl]methyl]-N,N-diethyl-benzamide] |  |  |  |  | 11.8 | > 10000 | 23.1
17 | CCN(CC)C(=O)c1ccc(C(=Nc2ccccc2Cl)N2CCN(CCc3cccs3)CC2)cc1 [Compound 21, 4-[[(2-chlorophenyl)imino][4-[2-(2-thienyl)ethyl]-1-piperazinyl]methyl]-N,N-diethyl-benzamide] |  |  |  |  | 95.3 | > 10000 | 40
18 | CCN1CCN(C(=Nc2cccc(Cl)c2)c2ccc(C(=O)OC)cc2)CC1 [Compound 29, 4-[[(3-chlorophenyl)imino](4-ethyl-1-piperazinyl)methyl]-benzoic acid methyl ester] |  | 283 | > 10000 | 97 |  |  | 
19 | CCN1CCN(C(=Nc2cccc(Br)c2)c2ccc(C(=O)OC)cc2)CC1 [Compound 30, 4-[[(3-bromophenyl)imino](4-ethyl-1-piperazinyl)methyl]-benzoic acid methyl ester] |  | 638 | > 10000 | 99 |  |  | 
20 | CCN1CCN(C(=Nc2cccc(F)c2)c2ccc(C(=O)OC)cc2)CC1 [Compound 32, 4-[(4-ethyl-1-piperazinyl)[(3-fluorophenyl)imino]methyl]-benzoic acid methyl ester] |  |  |  | 97 | 259 | > 10000 | 
21 | CCN1CCN(C(=Nc2cccc(F)c2)c2ccc(C(=O)OC)cc2)CC1 [Compound 33, 4-[(4-ethyl-1-piperazinyl)[(3-fluorophenyl)imino]methyl]-benzoic acid methyl ester] | 100 |  |  |  |  |  | 
22 | CCCN1CCN(C(=Nc2ccccc2Cl)c2ccc(C(=O)OC)cc2)CC1 [Compound 34, 4-[[(2-chlorophenyl)imino](4-propyl-1-piperazinyl)methyl]-benzoic acid methyl ester] |  |  |  | 90 | 87.3 | 2070 | 
23 | CCN1CCN(C(=Nc2ccccc2)c2ccc(C(=O)OC)cc2)CC1 [Compound 46, 4-[(4-ethyl-1-piperazinyl)(phenylimino)methyl]-benzoic acid methyl ester] |  |  |  | 94 |  |  | 26.7
24 | CCN1CCN(C(=Nc2cccc(OC)c2)c2ccc(C(=O)OC)cc2)CC1 [Compound 47, 4-[(4-ethyl-1-piperazinyl)[(3-methoxyphenyl)imino]methyl]-benzoic acid methyl ester] |  |  |  | 91 |  |  | 26.7
25 | CCN1CCN(C(=Nc2ccccc2OC)c2ccc(C(=O)OC)cc2)CC1 [Compound 48, 4-[(4-ethyl-1-piperazinyl)[(2-methoxyphenyl)imino]methyl]-benzoic acid methyl ester] |  |  |  | 60 |  |  | 

— patent publication US6887876B2, “Benzamidine derivatives” (Ortho-McNeil Pharmaceutical, Inc., priority 2000, dated 2005)
